The target of test [1] is Disintegrin and metalloproteinase domain-containing protein 17 (Sus scrofa, UniProt O77636). Nature of the test: Inhibition of porcine TACE.
For test [2], the target named is 72 kDa type IV collagenase (Homo sapiens, UniProt P08253). Kind of test: Inhibition of MMP2.
Another test is filed under the species Homo sapiens. Nature of the test: Inhibition of aggrecanase at 1 uM.
The next test relates to Blood. Kind of test: Inhibition of LPS-stimulated TNFalpha production in human whole blood. The class given is functional, tissue-based.
In the next test the target is T1, Matrilysin (Homo sapiens, UniProt P09237).
T1 sequence (P09237 whole entry): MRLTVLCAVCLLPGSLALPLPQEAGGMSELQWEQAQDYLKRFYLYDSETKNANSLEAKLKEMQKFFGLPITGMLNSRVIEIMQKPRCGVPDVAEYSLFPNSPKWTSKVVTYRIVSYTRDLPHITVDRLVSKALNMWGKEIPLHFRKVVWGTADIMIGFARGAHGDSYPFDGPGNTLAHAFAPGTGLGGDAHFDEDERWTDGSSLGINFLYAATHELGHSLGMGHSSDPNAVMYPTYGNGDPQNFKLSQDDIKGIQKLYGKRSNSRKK
Nature of the test: Inhibition of MMP7.

A further test addresses Stromelysin-1 (Homo sapiens, UniProt P08254). Nature of the test: Inhibition of MMP3.
Test [3] concerns the target Macrophage metalloelastase (Homo sapiens, UniProt P39900). Kind of test: Inhibition of MMP12.

Chain of Stromelysin-1 (P08254 whole entry): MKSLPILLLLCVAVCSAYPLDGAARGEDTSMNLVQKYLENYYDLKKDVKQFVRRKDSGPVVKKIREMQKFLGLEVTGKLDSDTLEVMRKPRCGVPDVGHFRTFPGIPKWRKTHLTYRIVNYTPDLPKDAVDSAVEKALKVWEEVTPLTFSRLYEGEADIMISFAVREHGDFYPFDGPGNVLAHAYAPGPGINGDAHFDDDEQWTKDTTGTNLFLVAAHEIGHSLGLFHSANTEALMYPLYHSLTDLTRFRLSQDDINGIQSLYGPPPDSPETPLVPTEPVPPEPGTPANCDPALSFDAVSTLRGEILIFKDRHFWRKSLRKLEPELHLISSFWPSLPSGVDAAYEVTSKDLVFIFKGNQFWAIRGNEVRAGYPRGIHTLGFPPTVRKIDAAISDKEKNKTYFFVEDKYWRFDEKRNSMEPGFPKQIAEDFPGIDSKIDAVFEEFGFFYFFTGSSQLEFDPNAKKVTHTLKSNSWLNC
Chain of 72 kDa type IV collagenase (P08253 whole entry): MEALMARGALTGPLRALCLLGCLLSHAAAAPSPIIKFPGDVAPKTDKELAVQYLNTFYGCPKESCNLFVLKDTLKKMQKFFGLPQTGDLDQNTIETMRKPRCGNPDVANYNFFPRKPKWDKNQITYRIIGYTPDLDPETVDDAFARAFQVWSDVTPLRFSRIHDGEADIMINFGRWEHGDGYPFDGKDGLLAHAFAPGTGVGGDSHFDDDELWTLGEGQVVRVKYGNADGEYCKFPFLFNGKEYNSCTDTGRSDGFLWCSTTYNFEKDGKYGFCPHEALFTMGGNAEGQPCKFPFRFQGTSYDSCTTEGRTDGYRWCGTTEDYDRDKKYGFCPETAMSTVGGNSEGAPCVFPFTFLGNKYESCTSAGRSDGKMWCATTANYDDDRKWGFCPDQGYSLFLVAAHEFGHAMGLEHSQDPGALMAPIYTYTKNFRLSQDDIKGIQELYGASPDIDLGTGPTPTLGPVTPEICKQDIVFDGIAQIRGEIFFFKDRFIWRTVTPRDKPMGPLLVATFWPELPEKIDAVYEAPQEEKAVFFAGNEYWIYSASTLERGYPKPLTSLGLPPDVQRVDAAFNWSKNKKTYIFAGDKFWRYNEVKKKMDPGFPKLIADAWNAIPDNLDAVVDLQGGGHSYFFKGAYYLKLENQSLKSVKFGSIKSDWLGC
Chain of Macrophage metalloelastase (P39900 whole entry): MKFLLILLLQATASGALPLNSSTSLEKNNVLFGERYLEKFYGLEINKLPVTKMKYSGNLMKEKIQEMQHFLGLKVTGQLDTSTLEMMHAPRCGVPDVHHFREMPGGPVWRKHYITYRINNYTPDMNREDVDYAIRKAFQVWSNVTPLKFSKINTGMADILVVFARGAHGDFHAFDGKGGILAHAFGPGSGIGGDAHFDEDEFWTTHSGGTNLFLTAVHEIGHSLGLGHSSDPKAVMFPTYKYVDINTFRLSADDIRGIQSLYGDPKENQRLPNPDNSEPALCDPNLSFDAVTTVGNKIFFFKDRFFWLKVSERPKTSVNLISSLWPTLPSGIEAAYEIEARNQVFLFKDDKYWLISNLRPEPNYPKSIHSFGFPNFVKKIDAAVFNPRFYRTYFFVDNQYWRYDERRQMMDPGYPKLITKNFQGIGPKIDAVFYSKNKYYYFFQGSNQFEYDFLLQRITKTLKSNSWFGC
Chain of Disintegrin and metalloproteinase domain-containing protein 17 (O77636 whole entry, the tested form may be a part): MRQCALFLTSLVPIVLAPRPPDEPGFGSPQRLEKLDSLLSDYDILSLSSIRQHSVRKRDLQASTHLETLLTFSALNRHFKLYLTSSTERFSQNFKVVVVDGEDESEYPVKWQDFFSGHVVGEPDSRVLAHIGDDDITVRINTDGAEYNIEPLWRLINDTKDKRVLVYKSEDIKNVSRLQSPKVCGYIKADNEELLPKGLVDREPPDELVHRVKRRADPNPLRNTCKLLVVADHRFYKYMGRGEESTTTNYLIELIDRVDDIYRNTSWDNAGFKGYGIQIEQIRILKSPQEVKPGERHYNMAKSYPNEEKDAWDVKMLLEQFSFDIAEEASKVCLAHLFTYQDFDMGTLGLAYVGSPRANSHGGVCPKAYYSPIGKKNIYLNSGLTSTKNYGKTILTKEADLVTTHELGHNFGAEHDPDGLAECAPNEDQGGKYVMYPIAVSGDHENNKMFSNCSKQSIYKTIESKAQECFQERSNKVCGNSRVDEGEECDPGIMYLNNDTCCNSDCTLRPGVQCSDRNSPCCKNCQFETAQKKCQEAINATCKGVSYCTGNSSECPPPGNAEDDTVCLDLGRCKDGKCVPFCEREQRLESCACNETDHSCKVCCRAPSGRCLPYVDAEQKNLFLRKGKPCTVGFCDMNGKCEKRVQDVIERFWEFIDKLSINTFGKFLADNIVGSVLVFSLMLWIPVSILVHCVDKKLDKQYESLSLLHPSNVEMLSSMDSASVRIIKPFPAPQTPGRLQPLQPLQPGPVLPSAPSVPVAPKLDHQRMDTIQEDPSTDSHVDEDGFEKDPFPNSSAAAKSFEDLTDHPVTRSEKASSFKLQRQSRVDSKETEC

In general, IC50 refers to the concentration at which inhibition is half-maximal. Lower therefore signals inhibition by little substance. As to `Cc1cc(COc2ccc(CCCC3(C)C(=O)NC(=O)NC3=O)cc2)c2ccccc2n1`, in test [1], the IC50 was over 100 µM.

In general, Ki refers to a measure of affinity in units of concentration, obtained from inhibition or displacement. A higher Ki goes with lower affinity. For orientation: inhibition means the drop in the measured response relative to a control, in per cent. Take `Cc1cc(COc2ccc(C(=O)NC3CCCC34C(=O)NC(=O)NC4=O)cc2)c2ccccc2n1` (stereo not drawn): in test [2], the inhibitory constant (Ki) is over 3.33 µM. This molecule also came in with an inhibition in the test filed under Homo sapiens of 0%. The half-maximal inhibitory concentration (IC50) is 0.024 µM in test [1] and over 50 µM with Blood.

As to `Cc1cc(COc2ccc(C(=O)NCC3(C4CCNCC4)C(=O)NC(=O)NC3=O)cc2)c2ccccc2n1`, the inhibition constant (Ki) in test [2] is over 3.33 µM; at Matrilysin, over 6.37 µM; at Stromelysin-1 it was over 4.5 µM; in test [3], over 6.02 µM. For the same molecule, the inhibition in the test listed under Homo sapiens stood at 1%. The IC50 worked out at 0.055 µM in test [1] and 48.7 µM in the test on Blood.

On to `Cc1cc(COc2ccc(C(=O)NCC3(NC(=O)OC(C)(C)C)C(=O)NC(=O)NC3=O)cc2)c2ccccc2n1`, for which the inhibition constant (Ki) is over 3.33 µM in test [2], over 6.37 µM at Matrilysin, over 4.5 µM on Stromelysin-1 and over 6.02 µM in test [3]. In the test filed under Homo sapiens, this molecule displayed an inhibition of 16%. Moreover, the IC50 in test [1] was 0.013 µM; in the test on Blood it was over 50 µM.

As for `Cc1cc(COc2ccc(C(=O)NCC3(C4CCN(S(C)(=O)=O)CC4)C(=O)NC(=O)NC3=O)cc2)c2ccccc2n1`, the Ki in test [2] was over 3.33 µM; at Matrilysin, over 6.37 µM; at Stromelysin-1, over 4.5 µM; in test [3], over 6.02 µM. This molecule also yielded an inhibition in the test listed under Homo sapiens of 36%. The IC50 is 0.029 µM in test [1] and over 50 µM with Blood.

With `Cc1cc(COc2ccc(C3(C)C(=O)NC(=O)NC3=O)cc2)c2ccccc2n1`, in test [1], the IC50 stood at 1.03 µM.

As for `Cc1cc(COc2ccc(C(=O)NCC3(C4CCN(C5CCOCC5)CC4)C(=O)NC(=O)NC3=O)cc2)c2ccccc2n1`, the Ki in test [2] was over 3.33 µM; on Matrilysin, over 6.37 µM; on Stromelysin-1 it was over 4.5 µM; in test [3], over 6.02 µM. This molecule yielded an inhibition in the test filed under Homo sapiens of 5%. Also, the concentration for half-maximal inhibition (IC50) in test [1] is 0.031 µM; with Blood it was over 50 µM.

Molecule `Cc1cc(COc2ccc(C(=O)NC(c3ccncc3)C3(C)C(=O)NC(=O)NC3=O)cc2)c2ccccc2n1` (stereo not drawn) gave an IC50 in test [1] of 2.36 µM.

Regarding `Cc1cc(COc2ccc(C(=O)NC3CN(C(=O)C(C)(C)C)CC34C(=O)NC(=O)NC4=O)cc2)c2ccccc2n1` (stereo not drawn), the Ki in test [2] was over 3.33 µM; on Matrilysin it was over 6.37 µM; at Stromelysin-1, over 4.5 µM; in test [3], over 6.02 µM. Moreover, the inhibition in the test filed under Homo sapiens was 53%. Also, the half-inhibitory concentration (IC50) is 0.111 µM in test [1] and over 50 µM in the test with Blood.

For the molecule `Cc1cc(COc2ccc(C(=O)NCC3(C4CCN(C(=O)OC(C)(C)C)CC4)C(=O)NC(=O)NC3=O)cc2)c2ccccc2n1`, the Ki in test [2] was over 3.33 µM; on Matrilysin, over 6.37 µM; at Stromelysin-1 it was over 4.5 µM; in test [3], over 6.02 µM. The molecule also came in with an inhibition in the test filed under Homo sapiens of 0%. The figures for the IC50 (in test [1]; in the test on Blood) were 0.047 µM and 35 µM, respectively.

For `C#CCN1CCN(C2(CNC(=O)c3ccc(OCc4cc(C)nc5ccccc45)cc3)C(=O)NC(=O)NC2=O)CC1`, the Ki was over 3.33 µM in test [2], over 6.37 µM at Matrilysin, over 4.5 µM on Stromelysin-1 and over 6.02 µM in test [3]. The inhibition in the test listed under Homo sapiens was 26%. Besides, the IC50 in test [1] is 0.062 µM; in the test with Blood, over 50 µM.

Regarding `Cc1cc(COc2ccc(CC(=O)NCC3(C)C(=O)NC(=O)NC3=O)cc2)c2ccccc2n1`, the concentration for half-maximal inhibition (IC50) in test [1] was over 100 µM.

For the molecule `Cc1cc(COc2ccc(C(=O)NC3(C)C(=O)NC(=O)NC3=O)cc2)c2ccccc2n1`, the IC50 in test [1] is over 100 µM.

Turning to `Cc1cc(COc2ccc(C(=O)NCC3(C4CCN(C(=O)C(C)(C)C)CC4)C(=O)NC(=O)NC3=O)cc2)c2ccccc2n1`, the Ki in test [2] is over 3.33 µM; at Matrilysin, over 6.37 µM; at Stromelysin-1 it was over 4.5 µM; in test [3], over 6.02 µM. In the test listed under Homo sapiens, this molecule registered an inhibition of 10%. Further, the values for the IC50 (in test [1]; with Blood) were 0.013 µM and 39 µM, respectively.

Turning to `CC(=O)N1CCN(C2(CNC(=O)c3ccc(OCc4cc(C)nc5ccccc45)cc3)C(=O)NC(=O)NC2=O)CC1`, the Ki was over 3.33 µM in test [2], over 6.37 µM on Matrilysin, over 4.5 µM on Stromelysin-1 and over 6.02 µM in test [3]. In the test listed under Homo sapiens, this molecule yielded an inhibition of 21%. For the same molecule, the IC50 in test [1] is 0.005 µM; in the test with Blood, over 50 µM.

As for `Cc1cc(COc2ccc(C(=O)NCC3(Cc4ccccc4)C(=O)NC(=O)NC3=O)cc2)c2ccccc2n1`, the inhibition constant (Ki) in test [2] is 0.37 µM; at Matrilysin it was over 6.37 µM; at Stromelysin-1, 3.69 µM; in test [3] it was 0.39 µM. In addition, the inhibition in the test listed under Homo sapiens is 34%. The IC50 was 0.018 µM in test [1] and over 50 µM in the test with Blood.

On to `Cc1cc(COc2ccc(NC(=O)CC3(C)C(=O)NC(=O)NC3=O)cc2)c2ccccc2n1`, for which the IC50 in test [1] was determined as 12 µM.

For the molecule `Cc1cc(COc2ccc(C(=O)NCC3(C4CCN(C)CC4)C(=O)NC(=O)NC3=O)cc2)c2ccccc2n1`, the Ki in test [2] is over 3.33 µM; on Matrilysin it was over 6.37 µM; at Stromelysin-1, over 4.5 µM; in test [3] it was over 6.02 µM. In addition, the inhibition in the test filed under Homo sapiens worked out at 15%. Besides, the results for the IC50 (in test [1]; with Blood) were 0.057 µM and over 50 µM, respectively.

In test [1], `Cc1cc(COc2ccc(C(=O)CCC3(C)C(=O)NC(=O)NC3=O)cc2)c2ccccc2n1` registered an IC50 of 0.8 µM.

As to `Cc1cc(COc2ccc(C(=O)NC3CCCCC34C(=O)NC(=O)NC4=O)cc2)c2ccccc2n1` (stereo not drawn), the Ki in test [2] was 0.11 µM. This molecule also showed an inhibition in the test filed under Homo sapiens of 29%. The IC50 in test [1] was 0.138 µM.

For `CCC1(CNC(=O)c2ccc(OCc3cc(C)nc4ccccc34)cc2)C(=O)NC(=O)NC1=O`, the Ki in test [2] is 0.2 µM; at Matrilysin, over 6.37 µM; on Stromelysin-1, over 4.5 µM; in test [3], 0.21 µM. Besides, the inhibition in the test filed under Homo sapiens came out at 18%. For the same molecule, the half-inhibitory concentration (IC50) in test [1] was 0.016 µM; with Blood, over 50 µM.

For the molecule `Cc1cc(COc2ccc(C(=O)NCC3(N4CCN(Cc5ccccc5)CC4)C(=O)NC(=O)NC3=O)cc2)c2ccccc2n1`, the inhibition constant (Ki) in test [2] was 2.7 µM; on Matrilysin it was over 6.37 µM; at Stromelysin-1 it was over 4.5 µM; in test [3] it was 4.1 µM. Further, the inhibition in the test listed under Homo sapiens was 22%. For the same molecule, the figures for the IC50 (in test [1]; in the test with Blood) were 0.014 µM and over 50 µM, respectively.

For the molecule `Cc1cc(COc2ccc(C(=O)NCC3(N4CCN(C(=O)c5cccnc5)CC4)C(=O)NC(=O)NC3=O)cc2)c2ccccc2n1`, the Ki in test [2] is over 3.33 µM; at Matrilysin, over 6.37 µM; at Stromelysin-1, over 4.5 µM; in test [3], 4.64 µM. In the test filed under Homo sapiens, the inhibition stood at 36%. Also, the IC50 in test [1] is 0.01 µM; in the test with Blood, 43 µM.

Take `Cc1cc(COc2ccc(C(=O)NCC3(N4CCN(C)CC4)C(=O)NC(=O)NC3=O)cc2)c2ccccc2n1`: the Ki was over 3.33 µM in test [2], over 6.37 µM at Matrilysin, over 4.5 µM at Stromelysin-1 and over 6.02 µM in test [3]. Moreover, the inhibition in the test filed under Homo sapiens stood at 21%. Further, the results for the concentration for half-maximal inhibition (IC50) (in test [1]; in the test on Blood) were 0.058 µM and over 50 µM, respectively.

For the molecule `Cc1cc(COc2ccc(C(=O)NCC3(N4CCN(C(C)C)CC4)C(=O)NC(=O)NC3=O)cc2)c2ccccc2n1`, the inhibition constant Ki was over 3.33 µM in test [2], over 6.37 µM on Matrilysin, over 4.5 µM at Stromelysin-1 and over 6.02 µM in test [3]. In addition, the inhibition in the test listed under Homo sapiens is 20%. For the same molecule, the IC50 in test [1] is 0.007 µM; in the test on Blood, over 50 µM.

Take `Cc1cc(COc2ccc(OC3(C)C(=O)NC(=O)NC3=O)cc2)c2ccccc2n1`: in test [1], the IC50 came out at 1.3 µM.

Take `Cc1cc(COc2ccc(/C=C/CC3(C)C(=O)NC(=O)NC3=O)cc2)c2ccccc2n1`: 11 µM corresponded to half-maximal inhibition in test [1] (IC50).

With `Cc1cc(COc2ccc(C(=O)NCC3(N4CCN(S(C)(=O)=O)CC4)C(=O)NC(=O)NC3=O)cc2)c2ccccc2n1`, the Ki in test [2] is 2.17 µM; at Matrilysin it was over 6.37 µM; on Stromelysin-1, over 4.5 µM; in test [3], 1.02 µM. The inhibition in the test filed under Homo sapiens was determined as 11%. Further, the concentration for half-maximal inhibition (IC50) was 0.002 µM in test [1] and over 50 µM in the test on Blood.

The molecule `Cc1cc(COc2ccc(CCC3(C)C(=O)NC(=O)NC3=O)cc2)c2ccccc2n1` gave an IC50 in test [1] of 49 µM.

For `Cc1cc(COc2ccc(C(=O)NCC3(C4CCN(C(C)C)CC4)C(=O)NC(=O)NC3=O)cc2)c2ccccc2n1`, the inhibition constant (Ki) was over 3.33 µM in test [2], over 6.37 µM on Matrilysin, over 4.5 µM on Stromelysin-1 and over 6.02 µM in test [3]. Also, in the test filed under Homo sapiens, the inhibition was determined as 21%. Further, the concentration for half-maximal inhibition (IC50) is 0.052 µM in test [1] and over 50 µM with Blood.

Take `Cc1cc(COc2ccc(C(=O)NCC3(N4CCN(C(=O)C(C)(C)C)CC4)C(=O)NC(=O)NC3=O)cc2)c2ccccc2n1`: the inhibitory constant (Ki) is 0.02 µM in test [2], over 6.37 µM on Matrilysin, over 4.5 µM at Stromelysin-1 and 0.05 µM in test [3]. In the test filed under Homo sapiens, the inhibition turned out to be 7%. The IC50 in test [1] was found to be 0.029 µM; in the test with Blood, 38 µM.

As to `Cc1cc(COc2ccc(C(=O)NCC3(C(C)C)C(=O)NC(=O)NC3=O)cc2)c2ccccc2n1`, the inhibition constant Ki in test [2] was 0.93 µM; on Matrilysin it was over 6.37 µM; on Stromelysin-1 it was over 4.5 µM; in test [3], over 6.02 µM. This molecule also gave an inhibition in the test filed under Homo sapiens of 11%. The half-inhibitory concentration (IC50) is 0.019 µM in test [1] and over 50 µM in the test on Blood.

In test [1], `Cc1cc(COc2ccc(CC3(C)C(=O)NC(=O)NC3=O)cc2)c2ccccc2n1` yielded an IC50 of 2.2 µM.

The values above are taken from ChEMBL document CHEMBL1138371, “Discovery of low nanomolar non-hydroxamate inhibitors of tumor necrosis factor-alpha converting enzyme (TACE)” (Bioorg Med Chem Lett, 2007).
